# Data as given in patent US10441537B2, “Unit doses, aerosols, kits, and methods for treating heart conditions by pulmonary administration” (InCarda Therapeutics, Inc., priority 2017, dated 2019).
# Like-named read-outs stand apart in the source and are kept apart here.
# Experiments:
# healthy volunteers = experiment: Phase 1 study: peripheral oxygen saturation (SpO2%); assay type: in vivo, human; conditions: for Oxygen Saturation (SpO2%), Mean: Predose
# Experimental: Pulmonary safety was assessed by performing lung spirometry tests and measuring peripheral oxygen saturation (SpO2%) prior to dosing and at various times after completion of the inhalation. Lung spirometry tests evaluated all lung function parameters, including forced vital capacity (FVC), forced expiratory volume in 1 second (FEV1), peak expiratory flow (PEF), and forced expiratory flow at 25% and 75% intervals (FEF25-75). Auscultation and respiration rate were also measured prior to dosing and at various times after inhalation. Chest x-rays were performed on subjects before and after flecainide inhalation.
# [1] = Phase 1 study: venous plasma pharmacokinetics; assay type: in vivo, human; conditions: for Tmax / Cmax / AUC(0-t) / half-life: venous plasma; for Dist. t1/2α, mean (CV %): both; for half-life: read-out: Elim. t1/2, mean (CV %) (converted)
# Experimental: In this study, for inhalation delivery of flecainide, the estimated total lung doses (eTLDs) were calculated to account for losses of flecainide in the inhalation device and losses of flecainide in subjects' mouth and throat. eTLD was thereby used to denote the dose that actually reached the lungs of the subjects. By design, in all nebulizers there can be a residual volume or mass of drug solution that stays in the nebulizer, and there can also be a percentage of the aerosol caught by subject's throat and mouth. For instance, in this study, it was estimated that 30% of the aerosol was lost in subject's throat and mouth.
# [2] = system: anesthetized Yorkshire pigs; experiment: PD responses (HR, MAP, ECG intervals) in anesthetized Yorkshire pigs, IV vs IT; assay type: in vivo
# Experimental: All catheters were positioned under fluoroscopic guidance. […] Data are reported as means+ SEM. Statistical analyses were performed using the SAS system (9.4) to apply ANOVA with a post-hoc Dunnett's test. Statistical significance was assumed at p<0.05.
# [3] = system: induced atrial fibrillation; experiment: Conversion of phenylephrine/burst-pacing-induced AF in anesthetized beagle dogs (Example 7); assay type: in vivo; conditions: for Time to NSR: IT
# Experimental: The study was carried out in anesthetized healthy adult beagle dogs with induced AF. Acute AF was induced using the combination of phenylephrine ([…]), to increase heterogeneity of atrial refractory periods via increased loading and through a baroreceptor-mediated increase in parasympathetic efferent activity, and right atrial burst pacing (40-50 Hz for ˜15 min). The AF induced using this method was, in general, stable for more than 30 mins.
# The cardiac rhythm was monitored prior to, during AF, and up to 10 min post-dosing and/or until conversion to NSR.
structure (smiles),measurement,setting,value
"O=C(NCC1CCCCN1)c1cc(OCC(F)(F)F)ccc1OCC(F)(F)F (stereo not shown) [flecainide, flecainide acetate]","SpO2%, Mean","healthy volunteers; 20 mg eTLD, 15 min Postdose",97%
same,"SpO2%, Mean","healthy volunteers; 20 mg eTLD, 30 min Postdose",97%
same,"SpO2%, Mean","healthy volunteers; 20 mg eTLD, 45 min Postdose",97%
same,"SpO2%, Mean","healthy volunteers; 20 mg eTLD, 60 min Postdose",97%
same,"SpO2%, Mean","healthy volunteers; 20 mg eTLD, 75 min Postdose",98%
same,"SpO2%, Mean","healthy volunteers; 20 mg eTLD, 90 min Postdose",98%
same,"SpO2%, Mean","healthy volunteers; 20 mg eTLD, 105 min Postdose",97%
same,"SpO2%, Mean","healthy volunteers; 20 mg eTLD, 120 min Postdose",98%
same,"SpO2%, Mean","healthy volunteers; 40 mg eTLD, 15 min Postdose",96%
same,"SpO2%, Mean","healthy volunteers; 40 mg eTLD, 30 min Postdose",97%
same,"SpO2%, Mean","healthy volunteers; 40 mg eTLD, 45 min Postdose",96%
same,"SpO2%, Mean","healthy volunteers; 40 mg eTLD, 60 min Postdose",96%
same,"SpO2%, Mean","healthy volunteers; 40 mg eTLD, 75 min Postdose",97%
same,"SpO2%, Mean","healthy volunteers; 40 mg eTLD, 90 min Postdose",97%
same,"SpO2%, Mean","healthy volunteers; 40 mg eTLD, 105 min Postdose",97%
same,"SpO2%, Mean","healthy volunteers; 40 mg eTLD, 120 min Postdose",97%
same,pre-dose and post-dose values for SpO2 (normal range),healthy volunteers; Cohorts 1 and 2,97-98%
same,"Oxygen Saturation (SpO2%), Mean","healthy volunteers; inhaled 20 mg eTLD, Cohort 1 (n=6)",98%
same,"Oxygen Saturation (SpO2%), Mean","healthy volunteers; inhaled 40 mg eTLD, Cohort 2 (n=10)",97%
same,"Tmax, median (min, max)","[1]; IV 2 mg/Kg over 10 min, Cohort 5, n=6, 2 mg/kg","1 (0, 60) min after EOI"
same,"Elim. t1/2β, mean (CV %)","[1]; Inhaled 20 mg, n=6",9.87 (25) hours
same,"Tmax, median (min, max)","[1]; Inhaled 30 mg, Cohort 5, n=6",≤ 1 min after EOI
same,"Tmax, median (min, max)","[1]; Inhaled 30 mg, Cohort 5, n=6, listed as Flecainide","0.5 (0, 1) min after EOI"
same,"Elim. t1/2β, mean (CV %)","[1]; Inhaled 40 mg, n=8 (post-hoc)",9.0 (24) hours
same,"Elim. t1/2β, mean (CV %)","[1]; Inhaled 60 mg, n=7 (post-hoc)",12.0 (14) hours
same,Tmax,"[1]; both sexes, human, inhaled or intranasal, 20 mg, Inhaled 20 mg, n=6, from end of inhalation, read-out: Tmax, median (min, max) (converted)",1 min
same,Cmax,"[1]; both sexes, human, inhaled or intranasal, 20 mg, Inhaled 20 mg, n=6, read-out: Cmax, arithmetic mean (CV %)",95.1 ng/mL
same,Cmax,"[1]; both sexes, human, inhaled or intranasal, 40 mg, Inhaled 40 mg, n=8 (post-hoc), read-out: Cmax, mean (CV %)",173 ng/mL
same,Tmax,"[1]; both sexes, human, inhaled or intranasal, 40 mg, Inhaled 40 mg, n=8 (post-hoc), read-out: Tmax, median (min, max) (converted)",1 min
same,Cmax,"[1]; both sexes, human, inhaled or intranasal, 60 mg, Inhaled 60 mg, n=7 (post-hoc), read-out: Cmax, mean (CV %)",232 ng/mL
same,Tmax,"[1]; both sexes, human, inhaled or intranasal, 60 mg, Inhaled 60 mg, n=7 (post-hoc), read-out: Tmax, median (min, max) (converted)",1 min
same,Tmax,"[1]; both sexes, human, inhaled or intranasal, 60 mg, two subjects each of 40 and 60 mg eTLD cohorts, after the end of inhalation, read-out: Tmax of the four subjects excluded post hoc",20 to 240 min
same,AUC(0-t),"[1]; both sexes, human, inhaled or intranasal, Inhaled 20 mg, n=6, read-out: AUCLast, mean (CV %)",421 ng·h/mL
same,AUC(0-t),"[1]; both sexes, human, inhaled or intranasal, Inhaled 40 mg, n=8 (post-hoc), read-out: AUCLast, mean (CV %)",685 ng·h/mL
same,AUC(0-t),"[1]; both sexes, human, inhaled or intranasal, Inhaled 60 mg, n=7 (post-hoc), read-out: AUCLast, mean (CV %)",946 ng·h/mL
same,Cmax,"[1]; both sexes, human, inhaled, 40 mg, 40 mg eTLD cohort, read-out: Cmax of the two excluded subjects",70.9 ng/mL
same,Cmax,"[1]; both sexes, human, inhaled, 60 mg, 60 mg eTLD cohort, read-out: Cmax of the two excluded subjects",82.3 ng/mL
same,"Dist. t1/2α, mean (CV %)","[1]; human, in vivo, inhaled or intranasal, 20 mg",3.86 (34) min
same,"Dist. t1/2α, mean (CV %)","[1]; human, in vivo, inhaled or intranasal, 40 mg",4.19 (39) min
same,"Dist. t1/2α, mean (CV %)","[1]; human, in vivo, inhaled or intranasal, 60 mg",3.47 (17) min
same,estimated t1/2α,"[1]; human, in vivo",3.5 to 4.2 min
same,Cmax,"[1]; human, inhaled or intranasal, 30 mg, Inhaled 30 mg, Cohort 5, n=6, read-out: Cmax, mean (CV %)",120 ng/mL
same,half-life,"[1]; human, inhaled or intranasal, 30 mg, Inhaled 30 mg, Cohort 5, n=6",606 min
same,AUC(0-t),"[1]; human, inhaled or intranasal, Inhaled 30 mg, Cohort 5, n=6, read-out: AUClast, mean (CV %)",487 ng·h/mL
same,Cmax,"[1]; human, iv, 2 mg/kg, IV 2 mg/Kg, Cohort 5, n=6, read-out: Cmax, mean (CV %)",749 ng/mL
same,half-life,"[1]; human, iv, 2 mg/kg, IV 2 mg/Kg, Cohort 5, n=6",600 min
same,AUC(0-t),"[1]; human, IV 2 mg/Kg, Cohort 5, n=6, read-out: AUClast, mean (CV %)",3050 ng·h/mL
same,"venous plasma concentration-time curves, inhaled vs IV","[1]; inhaled 30 mg eTLD vs IV 2 mg/kg (b559: IV normalized to 30 mg), Cohort 5, 2 mg/kg",near-identical
same,dose proportionality of venous plasma concentrations,"[1]; inhaled 20, 30 or 40 mg eTLD",near dose proportionality
same,mean arterial pressure,"[2]; IT 0.75 mg/kg, baseline 111±3.6 mmHg, p=0.9112",not significantly altered
same,heart rate,"[2]; IT 0.75 mg/kg, baseline 111±6.4 bpm, p=0.9970",not significantly altered
same,PR interval,"[2]; IT 0.75 mg/kg, baseline 130±5.3 ms, p=0.9351",not significantly changed
same,JTc interval,"[2]; IT 0.75 mg/kg, baseline 354±12.0 ms, p=0.7605",not significantly changed
same,QTc interval,"[2]; IT 0.75 mg/kg, baseline 435±12.9 ms, p=0.5505",not significantly changed
same,mean arterial pressure,"[2]; IT 1.5 mg/kg, baseline 108±9.4 mmHg, p=0.9894",not significantly altered
same,heart rate,"[2]; IT 1.5 mg/kg, baseline 118±13.2 bpm, p=0.9999",not significantly altered
same,PR interval,"[2]; IT 1.5 mg/kg, baseline 127±2.3 ms, p=0.0819",not significantly changed
same,JTc interval,"[2]; IT 1.5 mg/kg, baseline 364±11.5 ms, p=0.9968",not significantly changed
same,QTc interval,"[2]; IT 1.5 mg/kg, baseline 436±7.1 ms, p=0.1510",not significantly changed
same,heart rate,"[2]; IV 2 mg/kg, baseline 103±1.9 bpm, ANOVA p=0.9936, 30 min",not significantly altered
same,mean arterial pressure,"[2]; IV 2 mg/kg, baseline 105±6.7 mmHg, p=0.8852",not significantly altered
same,PR interval,"[2]; IV 2 mg/kg, baseline 127±7.8 ms, p=0.5161",not significantly changed
same,JTc interval,"[2]; IV 2 mg/kg, baseline 367±7.4 ms, p=0.9686",not significantly changed
same,QTc interval,"[2]; IV 2 mg/kg, baseline 442±7.9 ms, p=0.35",not significantly changed
same,Time to NSR,"[3]; Animal 002, dose 0.75 (0.25 + 0.5) mg/kg",52 s
same,Time to NSR,"[3]; Animal 003, dose 0.75 mg/kg",12 s
same,Time to NSR,"[3]; Animal 004, dose 0.75 mg/kg",23 s
same,Time to NSR,"[3]; Animal 005, dose 0.75 mg/kg",62 s
same,Time to NSR,"[3]; Animal 006, dose 1.0 (0.75 + 0.25) mg/kg",83 s
same,"effects in BP, VR and LV dP/dtmax upon conversion, IV vs IT",[3]; IV compared with IT administration,"greater effects in BP, VR and LV dP/dtmax"
